Species: Rattus norvegicus
Experiment: Open TG-GATES - Regimen: Single
Type: toxicity, organism-based, Sprague-Dawley
Parameters: regimen Single, gender Male, age 6 weeks
Details: in vivo, po, 0 mg/kg, route gavage, dose level Control; for APTT / Bas / Eos / Fbg / Hb / Ht / Lym / MCH / MCHC / MCV / Mono / Neu / PT / Plat / RBC / Ret / WBC: tissue Blood; for KIDNEY_L / KIDNEY_R / KIDNEY_TOTAL: tissue Kidney; for LIVER: tissue Liver; for ALP / ALT / AST / BUN / CRE / Ca / Cl / DBIL / GLC / IP / K / LDH / Na / PL / RALB / TBIL / TC / TG / TP / gamma-GTP: tissue Plasma

SMILES: COC(=O)C1=C(C)NC(C)=C(C(=O)OC)C1c1ccccc1[N+](=O)[O-] [NIFEDIPINE]
- TERMINAL_BW (3 h): 197.5 g
- APTT (3 h): 16.4 s
- Bas (3 h): 0.2%
- Eos (3 h): 0.8%
- Fbg (3 h): 271 mg/dL
- Hb (3 h): 13.3 g/dL
- Ht (3 h): 41.5%
- Lym (3 h): 74.2%
- MCH (3 h): 20.8 pg
- MCHC (3 h): 32.1%
- MCV (3 h): 64.8 fL
- Mono (3 h): 2.6%
- Neu (3 h): 21.2%
- PT (3 h): 14.8 s
- Plat (3 h): 120 x10_4/uL
- RBC (3 h): 641.4 x10_4/ul
- Ret (3 h): 8.7%
- WBC (3 h): 85.8 x10_2/uL
- KIDNEY_L (3 h): 0.9 g
- KIDNEY_R (3 h): 0.9 g
- KIDNEY_TOTAL (3 h): 1.8 g
- LIVER (3 h): 8.4 g
- ALP (3 h): 1457.4 IU/L
- ALT (3 h): 49.6 IU/L
- AST (3 h): 81.8 IU/L
- BUN (3 h): 9.4 mg/dL
- CRE (3 h): 0.2 mg/dL
- Ca (3 h): 10.6 mg/dL
- Cl (3 h): 105.6 meq/L
- DBIL (3 h): 0.012 mg/dL
- GLC (3 h): 178.4 mg/dL
- IP (3 h): 9.6 mg/dL
- K (3 h): 4.4 meq/L
- LDH (3 h): 90.8 IU/L
- Na (3 h): 142 meq/L
- PL (3 h): 128.2 mg/dL
- RALB (3 h): 2.5 g/dL
- TBIL (3 h): 0.044 mg/dL
- TC (3 h): 70.2 mg/dL
- TG (3 h): 42.4 mg/dL
- TP (3 h): 5.2 g/dL
- gamma-GTP (3 h): 1 IU/L
- TERMINAL_BW (6 h): 197 g
- APTT (6 h): 16.6 s
- Bas (6 h): 0.2%
- Eos (6 h): 1%
- Fbg (6 h): 298 mg/dL
- Hb (6 h): 13.5 g/dL
- Ht (6 h): 42.2%
- Lym (6 h): 71.2%
- MCH (6 h): 21.1 pg
- MCHC (6 h): 32%
- MCV (6 h): 65.8 fL
- Mono (6 h): 3.2%
- Neu (6 h): 23.6%
- PT (6 h): 15 s
- Plat (6 h): 127.7 x10_4/uL
- RBC (6 h): 641.2 x10_4/ul
- Ret (6 h): 8.8%
- WBC (6 h): 94.9 x10_2/uL
- KIDNEY_L (6 h): 0.9 g
- KIDNEY_R (6 h): 0.9 g
- KIDNEY_TOTAL (6 h): 1.7 g
- LIVER (6 h): 8.2 g
- ALP (6 h): 1485.2 IU/L
- ALT (6 h): 43.4 IU/L
- AST (6 h): 71 IU/L
- BUN (6 h): 9 mg/dL
- CRE (6 h): 0.2 mg/dL
- Cl (6 h): 107.4 meq/L
- DBIL (6 h): 0.008 mg/dL
- GLC (6 h): 177.8 mg/dL
- IP (6 h): 9.7 mg/dL
- K (6 h): 4.2 meq/L
- LDH (6 h): 70.4 IU/L
- Na (6 h): 144 meq/L
- PL (6 h): 139.8 mg/dL
- RALB (6 h): 2.5 g/dL
- TBIL (6 h): 0.036 mg/dL
- TC (6 h): 78.8 mg/dL
- TG (6 h): 56 mg/dL
- TP (6 h): 5.4 g/dL
- gamma-GTP (6 h): 1 IU/L
- TERMINAL_BW (9 h): 193.8 g
- APTT (9 h): 16 s
- Bas (9 h): 0%
- Eos (9 h): 1%
- Fbg (9 h): 297 mg/dL
- Hb (9 h): 13.1 g/dL
- Ht (9 h): 40.6%
- Lym (9 h): 80.6%
- MCH (9 h): 21 pg
- MCHC (9 h): 32.4%
- MCV (9 h): 65 fL
- Mono (9 h): 2%
- Neu (9 h): 15.8%
- PT (9 h): 14.7 s
- Plat (9 h): 120.3 x10_4/uL
- RBC (9 h): 626.4 x10_4/ul
- Ret (9 h): 9%
- WBC (9 h): 65.5 x10_2/uL
- KIDNEY_L (9 h): 0.9 g
- KIDNEY_R (9 h): 0.9 g
- KIDNEY_TOTAL (9 h): 1.7 g
- LIVER (9 h): 7.4 g
- ALP (9 h): 1438.2 IU/L
- ALT (9 h): 35.6 IU/L
- AST (9 h): 67 IU/L
- BUN (9 h): 8.2 mg/dL
- CRE (9 h): 0.2 mg/dL
- Ca (9 h): 10.4 mg/dL
- Cl (9 h): 106.6 meq/L
- DBIL (9 h): 0.002 mg/dL
- GLC (9 h): 162.8 mg/dL
- IP (9 h): 10.2 mg/dL
- K (9 h): 3.7 meq/L
- LDH (9 h): 61.4 IU/L
- Na (9 h): 143.4 meq/L
- PL (9 h): 130.6 mg/dL
- RALB (9 h): 2.5 g/dL
- TBIL (9 h): 0.04 mg/dL
- TC (9 h): 79 mg/dL
- TG (9 h): 18.4 mg/dL
- TP (9 h): 5.3 g/dL
- gamma-GTP (9 h): 1.2 IU/L
- TERMINAL_BW (24 h): 213.5 g
- APTT (24 h): 16.3 s
- Bas (24 h): 0%
- Eos (24 h): 1%
- Fbg (24 h): 285.8 mg/dL
- Hb (24 h): 13.1 g/dL
- Ht (24 h): 40.6%
- Lym (24 h): 73.2%
- MCH (24 h): 21.2 pg
- MCHC (24 h): 32.3%
- MCV (24 h): 65.5 fL
- Mono (24 h): 3%
- Neu (24 h): 21.8%
- PT (24 h): 14.2 s
- Plat (24 h): 118.4 x10_4/uL
- RBC (24 h): 620 x10_4/ul
- Ret (24 h): 8.7%
- WBC (24 h): 87.2 x10_2/uL
- KIDNEY_L (24 h): 0.9 g
- KIDNEY_R (24 h): 0.9 g
- KIDNEY_TOTAL (24 h): 1.8 g
- LIVER (24 h): 9.6 g
- ALP (24 h): 1663.2 IU/L
- ALT (24 h): 44 IU/L
- AST (24 h): 75 IU/L
- BUN (24 h): 15.2 mg/dL
- CRE (24 h): 0.2 mg/dL
- Ca (24 h): 11 mg/dL
- Cl (24 h): 106.6 meq/L
- DBIL (24 h): 0.018 mg/dL
- GLC (24 h): 187 mg/dL
- IP (24 h): 8.3 mg/dL
- K (24 h): 4.3 meq/L
- LDH (24 h): 67.4 IU/L
- Na (24 h): 145.6 meq/L
- PL (24 h): 156.8 mg/dL
- RALB (24 h): 2.7 g/dL
- TBIL (24 h): 0.03 mg/dL
- TC (24 h): 87.8 mg/dL
- TG (24 h): 62.6 mg/dL
- TP (24 h): 5.7 g/dL

Reference: ChEMBL document CHEMBL3885861, “Open TG-GATES”
